System: LPS-induced death
Experiment: Prevention of LPS-induced death in mice
Type: in vivo
Conditions: 30 mg/kg ip 2 h before LPS (2 mg/mouse)
Description: Forty mice were divided into three groups, two groups consisting of ten mice and one group of twenty mice. Administrations of vehicles, LPS, and Compound A were intraperitoneal. Group 1 (n=10) mice received vehicle (phosphate buffered saline for LPS, 200 μl/mouse) at time zero and vehicle for Compound A (200 μl/mouse) 2 hours later. Group 2 (n=10) mice received the vehicle for Compound A at zero time (200 μl/mouse) and LPS (2 mg in 200 μl/mouse) for two hours later. Group 3 (n=20) received Compound A (30 mg/kg in 200 μl of vehicle) at time zero and LPS (2 mg in 200 μl/mouse) two hours later.

**Q.** What does the source list for `CCSCc1ccc2c(c1)c1c3c(c4c5cc(CSCC)ccc5n5c4c1n2C1CC(O)(C(=O)OC)C5(C)O1)CNC3=O` (stereo not drawn) [Compound A]?
**A.** mortality one week after LPS: 80%; mortality at 20 hours after LPS (LPS alone 90% within 20 hours): 25%; mortality at 42 hours after LPS (LPS alone 100% by 42 hours): 75%

Source: patent publication US6184217A (Cephalon, Inc., priority 1997, dated 2001)
